Laboratory results: patent US6846489B1, “Vaccines containing a saponin and a sterol” (priority 1995, dated 2005)

Columns and labels:
[1] = type: in vivo, rabbits
Source text: 1.6 Reactogenicity intra-muscularly in rabbits
Since the CPK increase is a measure of muscle damage this indicates decreased muscle damage and is confirmed by the histopathology.

[2] = Lytic activity of QS21 on fluorescent liposomes (carboxyfluorescein release); conditions: fluorescent liposomes without cholesterol in their membrane
Experimental: When QS21 is added to erythrocytes, they lyse them releasing hemoglobin. […]
The same holds true using fluorescent liposomes to measure the lytic activity.

erythrocytes = assay: Lytic activity of QS21 on erythrocytes (hemolysis); type: cell-based; conditions: for lytic activity: expressed as μg QS21 equivalent for the same hemolysis, 5 μg QS21 (or digitonin)
Experimental: When QS21 is added to erythrocytes, they lyse them releasing hemoglobin. This lytic activity can also be measured using liposomes which contain cholesterol in their membrane and an entrapped fluorescent dye, carboxyfluorescein—as the liposomes are lysed the dye is released which can be monitored by fluorescence spectroscopy.
If the QS21 first associates with cholesterol in liposomes it is no longer lyric towards cells or other liposomes.
In the presence of phospholipids the cholesterol resides within the phospholipid bilayer which can form a stable suspension of vesicles called liposomes. To avoid the requirement to add phospholipids a soluble derivative was tried.

HSV gD = conditions: antigen gD (5 μg)
[3] = Base-mediated hydrolysis of QS21 monitored by reverse-phase HPLC; type: physicochemical; conditions: pH 9, 37° C.
Source text: This hydrolysis can be monitored by measuring the decrease in the peak corresponding to QS21 on reverse-phase HPLC.

[4] = Binding of the liposome-QS21 complex to alum; type: physicochemical; conditions: incubated with alum (Al(OH)3) in PBS
Experimental: QS21 was incubated with neutral liposomes containing excess cholesterol as well as radioactive cholesterol and then incubated with alum (Al(OH)3) in PBS.

Compound	toxicity in rabbits (by CPK) ([1]; QS21 associated with cholesterol-containing liposomes, Chol:QS21=6:1)	CPK Day0 Mean ([1]; mean of 5 rabbits) [U.I./L]	CPK Day1 Mean ([1]; mean of 5 rabbits) [U.I./L]	CPK Day3 Mean ([1]; mean, value in parentheses left out) [U.I./L]	lysis of fluorescent liposomes [2]	lytic activity on erythrocytes (erythrocytes; QS21 incubated with liposomes containing cholesterol before adding to erythrocytes, 1:1 ratio cholesterol to QS21)	lytic activity (erythrocytes) [µg]	IgG1 %, isotypes 7 days post II (HSV gD) [%]	IgG1, isotypes 7 days post II (HSV gD) [µg/mL]	IgG2a %, isotypes 7 days post II (HSV gD) [%]	IgG2a, isotypes 7 days post II (HSV gD) [µg/mL]	IgG2b %, isotypes 7 days post II (HSV gD) [%]	IgG2b, isotypes 7 days post II (HSV gD) [µg/mL]	IgG 7 post II (GMT) (HSV gD)	IgG 14 post II (GMT) (HSV gD)	hydrolysis of the QS21 ([3]; 16 hours, liposomes containing cholesterol added 2:1 (chol:QS21 w/w))	QS21 degraded ([3]; 16 hours, liposomes containing cholesterol, ratio 1:1) [%]	QS21 hydrolysed ([3]; within 16 hours, QS21 alone) [%]	binding to alum in PBS [4]	reduction in the lytic activity of QS21 (erythrocytes; 2000 fold excess (w/w) over QS21)
QS21	non-toxic	1369	6261	1212	no lysis	no lytic activity is detected	5	66	156	28	67	6	14	3468	4132	no hydrolysis	10	90	neither neutral liposomes nor QS21 bind to alum	–
C[C@@H]1CC[C@@]2(OC1)O[C@H]1[C@@H](O)[C@H]3[C@@H]4CC[C@H]5C[C@@H](O[C@@H]6O[C@H](CO)[C@H](O[C@@H]7O[C@H](CO)[C@@H](O)[C@H](O[C@@H]8OC[C@@H](O)[C@H](O)[C@H]8O)[C@H]7O[C@@H]7O[C@H](CO)[C@H](O)[C@H](O[C@@H]8O[C@H](CO)[C@@H](O)[C@H](O)[C@H]8O)[C@H]7O)[C@H](O)[C@H]6O)[C@H](O)C[C@]5(C)[C@H]4CC[C@]3(C)[C@H]1[C@@H]2C [digitonin]	–	–	–	–	–	–	5	–	–	–	–	–	–	–	–	–	–	–	–	–
Polyoxyethanyl-cholesterol sebacate	–	–	–	–	–	–	–	–	–	–	–	–	–	–	–	–	–	–	–	no reduction
